Measurements taken from PubChem BioAssay AID179 (DTP/NCI, 2004).
Several values for one entry are separate records, joined by “and”; a condition that tells them apart may be missing. Equal values may be shown once. Activity calls are given as the source filed them.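 The calls were made as follows: active = compounds giving half or more protection of infected cells from virus-caused growth loss, again on retest; inactive = the rest.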

Test system: CEM cells HIV-1 protection, formazan growth assay
Test: NCI AIDS Antiviral Assay
Conditions: for IC50: measured here: growth of uninfected CEM cells
Summary of the method: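 Five concentrations of each compound were applied to infected and uninfected human CEM cells. Protection from HIV-1 was judged from growth measured with a soluble formazan assay.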

Structure (SMILES) | EC50 [µM] | IC50 | outcome
O=c1[nH]c2ncsc2c(=O)n1OS(=O)(=O)c1ccccc1 | > 200 | 12.9 µM | –
COc1cc2c(cc1OC)C1C3CCCCC3CCN1CC2 (stereo not drawn) | > 200 | 138 µM | –
Cc1nc(Nc2ccccc2)sc1C(=O)CC(=O)C(=O)Nc1c(C(C)C)cccc1C(C)C | > 77.6 | > 77.6 µM | –
NC(=O)C(=Cn1c(=S)[nH]c2ccccc21)C(N)=O | > 200 | > 200 µM | –
Oc1ccccc1C=NCCSSCCN=Cc1ccccc1O | – | – | inactive
CC(C)CC1[C@@H](OCc2ccccc2)COS(=O)(=O)N1Cc1ccccc1 (stereo partly drawn) | > 200 | 77.6 µM | –
c1nn2cnnc2s1 | – | – | inactive
O=C1NC(=O)C2C(=O)NC(=O)C1C2(c1ccccc1)c1cc[nH]c1 (stereo not drawn) | > 22.4 | 16.6 µM | –
COc1c2occc2c(N=Cc2c[nH]c3ccccc23)c2ccc(=O)oc12 | > 50.1 | 28.2 µM | –
Nn1c(=S)[nH]n2cnnc12 | > 1580 | 186 µM | –
CC1C2(C)OCC(C#N)(C(=N)O2)C1(C#N)C#N (stereo not drawn) | > 200 | 20.9 µM | –
N/C(=N/N=C/c1cccc([N+](=O)[O-])c1)NO | – | – | inactive
CC[C@@H]1CC[C@@H]2[C@H](CC[C@]3(C)[C@@H](OC(C)=O)CC[C@@H]23)[C@H]1C(=O)OC | > 200 | 24.5 µM | –
CCC(C)C1(C2CCCC2)NC(=O)NC1=O (stereo not drawn) | > 200 | > 200 µM | –
CCCCOC(=O)C(=O)C(CC(CC)C(=O)c1ccccc1)C(=O)C=C(C)C (stereo not drawn) | > 646 | > 646 µM | –
COc1ccc2cc1Oc1ccc(cc1)C[C@H]1c3cc(c(OC)cc3CCN1C)Oc1c(O)c(OC)cc3c1[C@H](C2)N(C)CC3 | – | – | inactive
COC(=O)/C=C/C(=O)C1C(C(=O)OC)C2(C(=O)OC)CCC1(C(=O)OC)N2 (stereo not drawn) | – | – | inactive
COc1ccc(C(=O)/C=C/c2ccncc2)cc1OC | > 200 | 3.02 µM | –
CC(C)(C)OC[C@H](O)CC#N | > 200 | > 200 µM | –
Cc1ccccc1NC(=O)CC(=O)N1N=C(N(CCC#N)c2ccccc2Cl)CC1c1ccccc1 (stereo not drawn) | > 263 | > 263 µM | –
COc1ccc(N2C(=O)C3c4[nH]c5ccccc5c4C4CCCCCCCC4C3C2=O)cc1 (stereo not drawn) | > 200 | 81.3 µM | –

Structure (SMILES) | EC50 [µM] | IC50 | outcome
CC1(C)C(O)CC[C@@]2(C)C1CC[C@]1(C)C2CC=C2[C@@H]3C[C@](C)(C(=O)O)CC[C@]3(C)CCC21C (stereo partly drawn) | > 200 | 27.5 µM | –
NC(=O)C(N/N=C(/C(=O)c1ccccc1)c1ccccc1)c1ccccc1 (stereo not drawn) | > 200 | 44.7 µM | –
C=CCCC(C)N(C(=O)OC(C)(C)C)S(=O)(=O)c1ccc(C)cc1 (stereo not drawn) | > 14.8 | > 14.8 µM | –
COc1cc2c(cc1OC)CC1c3cc(OC)c(OC)cc3CCN1CC2 (stereo not drawn) | > 200 | 30.2 µM | –
O=C1NC(=O)C(CCN2CCCCC2)(c2ccccc2)C(=O)N1 | > 200 | > 200 µM | –
O=C1NC2(CCCCC2)C2CCCCC=C12 (stereo not drawn) | – | – | inactive
C(=C(c1ccccc1)c1ccccc1)N1CCOCC1 | > 200 | > 200 µM | –
Cc1ccc(-c2c3nc(c(-c4ccc(C)cc4)c4ccc([nH]4)c(-c4ccc(C)cc4)c4nc(c(-c5ccncc5)c5ccc2[nH]5)C=C4)C=C3)cc1.Cc1ccc(-c2c3nc(c(-c4ccc(C)cc4)c4ccc([nH]4)c(-c4ccc(C)cc4)c4nc(c(-c5ccncc5)c5ccc2[nH]5)C=C4)C=C3)cc1.Cc1ccc(-c2c3nc(c(-c4ccc(C)cc4)c4ccc([nH]4)c(-c4ccc(C)cc4)c4nc(c(-c5ccncc5)c5ccc2[nH]5)C=C4)C=C3)cc1.Cc1ccc(-c2c3nc(c(-c4ccc(C)cc4)c4ccc([nH]4)c(-c4ccc(C)cc4)c4nc(c(-c5ccncc5)c5ccc2[nH]5)C=C4)C=C3)cc1.O=S(=O)([O-])C(F)(F)F.[Pt] | > 25.1 | 14.1 µM | –
COc1ccc(C(C2=C(O)COC2=O)c2cc3c(cc2O)OCO3)cc1OC (stereo not drawn) | > 200 | 132 µM | –
COC(=O)C(N=O)C(=O)OC | – | – | inactive
O=C1O[C@H]2CCC3=CC[C@@H](c4ccccc4)C=C1[C@H]32 | – | – | inactive
C=CCOc1ccc2c(C)cc(=O)oc2c1C | > 112 | 102 µM | –
COc1ccccc1N=Nc1c(-c2ccccc2)nn(C(=O)CC(=O)Nc2ccccc2Cl)c1-c1ccccc1 | > 13.2 | > 13.2 µM | –
O=C(O)[C@@H]1CCC(=O)N1C(c1ccc2c(c1)OCO2)c1ccc2c(c1)OCO2 | > 200 | > 200 µM | –
CCCNC(=O)NS(=O)(=O)c1ccc(Cl)cc1 | – | – | inactive
O=C1Sc2ccccc2C(=O)N2CCCC12 (stereo not drawn) | > 200 | > 200 µM | –
COc1ccc(OC)c(N=Nc2c(O)c3ccccc3[nH]c2=O)c1 | 47.9 | > 200 µM | –
CCc1n[nH]c(=O)n1/N=C/c1ccccc1O | > 200 | > 200 µM | –
O=c1cn[nH]c2ccc(Br)cc12 | > 95.5 | > 95.5 µM | –
O=c1[nH]nc(Nc2ccc(Cl)cc2)c2nnn(-c3ccc([N+](=O)[O-])cc3)c12 | > 200 | 67.6 µM | –
O=C1C(=O)N(C23CC4CC(CC(C4)C2)C3)C(=S)N1c1ccccc1 | > 200 | 110 µM | –

Structure (SMILES) | EC50 [µM] | IC50 | outcome
COc1cc(C)c2c(c1)CN1CN2Cc2cc(OC)cc(C)c21 | – | – | inactive
COC(=O)c1ccccc1SSc1ccccc1C(=O)OC | > 200 | 18.6 µM | –
NC1=NS(=O)(=O)Nc2nc(-c3ccc(Cl)cc3)[nH]c21 | > 200 | > 200 µM | –
O=C1NCC2(CCN(CC3COc4ccccc4O3)CC2)N1c1ccccc1 (stereo not drawn) | > 200 | > 200 µM | –
CC1(C)CCC2=C(O1)C(=O)c1ccccc1C2=O | > 200 | 18.2 µM and 14.5 µM | –
c1ccc(COC2C3COC(O3)C(OCc3ccccc3)C2OCc2ccccc2)cc1 (stereo not drawn) | > 200 | 15.1 µM | –
CCOC(=O)/C(=C\c1ccc(Cl)cc1)[Se]c1ccccc1 | > 97.7 | > 97.7 µM | –
CC(=O)OCC1OC(n2c(=S)n(-c3ccccc3)c(=O)c3cc(Br)cc(Br)c32)C(OC(C)=O)C(OC(C)=O)C1OC(C)=O (stereo not drawn) | > 18.2 | > 18.2 µM | –
CC(=O)N1C(=O)c2cc3ccccc3cc21 | > 200 | > 100 µM | –
O=C(NCCCCN1CC2CCCC2C1)C(C1CCCCC1)C1CCCCC1 (stereo not drawn) | > 200 | 10.7 µM | –
CC(=O)Nc1ccc(NNc2cc(=O)n(C)c(=O)[nH]2)cc1 | > 200 | 2.4 µM | –
O=C(Nc1nc(C23CC4CC(CC(C4)C2)C3)cs1)c1cc2ccccc2oc1=O | > 200 | > 200 µM | –
Cc1c(/C=N/NC(=O)c2cc(Br)cc(Br)c2O)c(=O)n(-c2ccccc2)n1C | > 200 | 123 µM | –
COc1ccc([C@@]23CCC(=O)C[C@@H]2N(C)CC3)cc1OC | > 200 | > 200 µM | –
CS(=O)(=O)NNS(=O)(=O)c1ccc(F)cc1 | > 251 | > 251 µM | –
CCOC(=O)Nc1nc2ccc(Cn3cccc3)cc2[nH]1 | > 13.2 | 0.794 µM | –
CCn1c2c(c3ccccc31)[C@@H](c1ccc(Cl)cc1)CC1C(=O)N(c3ccccc3)C(=O)C21 (stereo partly drawn) | > 11.5 | > 11.5 µM | –
CC(=O)Nc1ccc(NCC(=O)Nn2cnc3ccc(S(=O)(=O)Nc4ccc(NC(C)=O)cc4)cc3c2=O)cc1 | > 200 | 191 µM | –
COc1ccc(NC(=S)/C(=C(/[O-])c2ccc(C)cc2)[n+]2ccccc2)cc1 | – | – | inactive
CCN(CC)OC(=O)/C=C/c1ccccc1 | – | – | inactive
CC1(C)CC(=O)C(/C=N/C(=S)NC2CCCCC2)=C(O)C1 | > 100 | > 100 µM | –

Structure (SMILES) | EC50 [µM] | IC50 | outcome
COC(=O)C1CC(=O)N(C)c2sc(C)c(C)c2C1=O (stereo not drawn) | > 282 | 112 µM | –
O=[N+]1ON=C(c2ccccc2)C1=C1C(c2c(-c3ccccc3)no[n+]2[O-])=NON1[O-] | > 200 | 6.03 µM | –
Cc1nc2c(=O)n(C)c(=O)nc-2n(-c2ccc(Cl)cc2)c1C | – | – | inactive
COc1c2c(cc3occ(-c4ccc(CC=C(C)C)cc4)c(=O)c13)OC(C)(C)C=C2 | > 200 | 14.1 µM | –
CC(=O)OCC1OC(N2C(C)=C(C(C)=O)C(c3ccc(Cl)cc3)C(C#N)=C2S)C(OC(C)=O)C(OC(C)=O)C1OC(C)=O (stereo not drawn) | > 200 | 29.5 µM | –
Oc1cc(Cl)c(Cl)cc1Cl | – | – | inactive
CCN(CC)CCN1C(=O)c2cccc3cc([N+](=O)[O-])cc(c23)C1=O | > 200 | 1.48 µM | –
[Cu].c1ccc2c3[n-]c(c2c1)/N=c1\[n-]/c(c2ccccc12)=N\c1[n-]c(c2ccccc12)/N=c1\[n-]/c(c2ccccc12)=N\3 | > 200 | 51.3 µM | –
Cc1ccc(C)n1-c1ccccc1C1C=Cn2c(=O)oc3c(OC(C)C)c(OC(C)C)c(O)c1c32 (stereo not drawn) | > 200 | 16.2 µM | –
CC1=Nc2ccccc2S/C1=C1/C=NC(=NC#N)N=C1C(=O)Nc1cccc(Cl)c1 | > 83.2 | > 83.2 µM | –
CC(C)NC(=O)OCCS(=O)c1c(Cl)c(Cl)nn1C (stereo not drawn) | > 200 | 33.1 µM | –
O=C1OC2OC3OC(=O)C4C3CC2C14 (stereo not drawn) | > 257 | > 257 µM | –
C=CCCCCCCCCC(=O)NC(C)C(C)(C)C (stereo not drawn) | > 200 | 74.1 µM | –
O=C1c2cc3c(cc2CC1Cc1ccc2c(c1)CCC2)CCC3 (stereo not drawn) | > 200 | 91.2 µM | –
Cc1cc(C)c(C)c(-n2[nH]c(=O)n(C)c2=O)c1C | > 200 | > 200 µM | –
CCCCCCCCCCCCn1[nH]c(C)c(C(=S)SCCCCCCCC)c1=O | > 57.5 | 56.2 µM | –
CCOC(=O)C(NC(=O)c1ccccc1)[CH](C)[Sn]([c]1ccccc1)([c]1ccccc1)[c]1ccccc1 (stereo not drawn) | > 200 | 13.5 µM | –
CN(C)c1ccc(-c2c(C#N)c(O)n(NS(=O)(=O)c3ccccc3)c(=O)c2C#N)cc1 | > 200 | > 200 µM | –
CCCCCCCCCCCC(=O)Oc1c(Cl)cc(Cl)c(OC(=O)C(=O)Oc2c(Cl)cc(Cl)c(OC(=O)CCCCCCCCCCC)c2Cl)c1Cl | – | – | inactive
COc1ccc(C)cc1S(=O)(=O)c1c(Cl)cccc1[N+](=O)[O-] | > 200 | > 200 µM | –
CCCCCC(=O)n1[nH]c(=O)n(-c2ccc(OC)cc2)c1=O | > 200 | > 200 µM | –
